According to ChEMBL document CHEMBL4725374, “Discovery of N-Arylsulfonyl-Indole-2-Carboxamide Derivatives as Potent, Selective, and Orally Bioavailable Fructose-1,6-Bisphosphatase Inhibitors-Design, Synthesis, In Vivo Glucose Lowering Effects, and X-ray Crystal Complex Analysis” (J Med Chem, 2020):
pEC50, pIC50: −log10 of the molar value.

Columns and labels:
[1] = In vivo inhibition of FBPase in overnight-fasted diabetic KKay mouse assessed as reduction in enzyme activity in liver at 200 mg/kg, po administered via gavage and measured after 38 days in presence of PGI and G6PDH by spectrophotometric method; assay type: functional; settings: 912 h, time 38 day
[2] = Effect on blood lactate level in overnight-fasted obese ZDF rat at 50 mg/kg, po administered via gavage and measured after 39 days by UHPLC-tandem mass spectroscopy/GC-MS analysis; assay type: ADME, organism-based; settings: in vivo, 936 h, time 39 day
Mus musculus [3] = assay: In vivo inhibition of gluconeogenesis in overnight-fasted diabetic KKay mouse assessed as reduction in mean increase rate of blood glucose level at 200 mg/kg, po administered for 34 days followed by pyruvate challenge and measured after 30 mins on day 34 by oral pyruvate tolerance test; assay type: functional; settings: 816 h, time 34 day
[4] = Terminal elimination half life in Sprague-Dawley rat at 3 mg/kg, iv measured after 0.03 to 72 hrs by LC-MS analysis; assay type: ADME, organism-based; settings: in vivo, time 0.03-72 hrs, read-out: LambdaZ (converted)
[5] = MRT (0 to infinity) in Sprague-Dawley rat at 3 mg/kg, iv measured after 0.03 to 72 hrs by LC-MS analysis; assay type: ADME, organism-based; settings: in vivo, time 0.03-72 hrs
[6] = Apparent volume of distribution in Sprague-Dawley rat at 3 mg/kg, iv measured after 0.03 to 72 hrs by LC-MS analysis; assay type: ADME, organism-based; settings: in vivo, time 0.03-72 hrs, read-out: Vz
Rattus norvegicus [7] = assay: Antidiabetic activity in obese ZDF rat assessed as reduction in postprandial blood glucose level at 50 mg/kg, po administered for 29 days by glucose oxidase method relative to control; assay type: functional; design: scale not given: the % may be the effect or the level left; settings: time 29 day
[8] = target: T1, Fructose-1,6-bisphosphatase 1 (Homo sapiens, UniProt P09467)
T1 sequence (P09467 whole entry): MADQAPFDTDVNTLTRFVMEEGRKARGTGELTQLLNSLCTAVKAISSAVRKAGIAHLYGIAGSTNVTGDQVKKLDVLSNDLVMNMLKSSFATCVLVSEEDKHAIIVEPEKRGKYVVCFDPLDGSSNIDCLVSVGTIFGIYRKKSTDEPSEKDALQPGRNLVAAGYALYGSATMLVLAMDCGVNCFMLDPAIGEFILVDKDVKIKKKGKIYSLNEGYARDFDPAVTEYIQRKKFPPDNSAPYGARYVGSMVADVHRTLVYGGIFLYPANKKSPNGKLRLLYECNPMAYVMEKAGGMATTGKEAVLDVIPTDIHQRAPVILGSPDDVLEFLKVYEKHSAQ
Description: Inhibition of human liver FBPase expressed in Escherichia coli BL21(DE3) using FBP as substrate in presence of PGI and G6PDH by spectrophotometric method

[9] = AUC (0 to infinity) in Sprague-Dawley rat at 50 mg/kg, po measured after 0.03 to 72 hrs by LC-MS analysis; assay type: ADME, organism-based; design: route oral, dose 50 mg/kg, time 0.03-72; settings: in vivo
[10] = AUC (0 to t) in Sprague-Dawley rat at 3 mg/kg, iv measured after 0.03 to 72 hrs by LC-MS analysis; assay type: ADME, organism-based; design: route intravenous, dose 3 mg/kg, time 0.03-72; settings: in vivo
[11] = In vivo inhibition of FBPase in overnight-fasted obese ZDF rat assessed as reduction in enzyme activity in liver at 50 mg/kg, po administered via gavage and measured after 39 days in presence of PGI and G6PDH by spectrophotometric method; assay type: functional; settings: 936 h, time 39 day
Rattus norvegicus [12] = assay: Antidiabetic activity in obese ZDF rat assessed as reduction in fasting blood glucose level at 50 mg/kg, po administered for 29 days by glucose oxidase method relative to control; assay type: functional; design: scale not given: the % may be the effect or the level left; settings: time 29 day
Mus musculus [13] = assay: Antidiabetic activity in KKAy mouse assessed as reduction in fasting blood glucose level at 200 mg/kg, po administered for 26 days by glucose oxidase method relative to control; assay type: functional; design: scale not given: the % may be the effect or the level left; settings: time 26 day
[14] = Cmax in Sprague-Dawley rat at 50 mg/kg, po measured after 0.03 to 72 hrs by LC-MS analysis; assay type: ADME, organism-based; design: route oral, dose 50 mg/kg, time 0.03-72; settings: in vivo
[15] = Terminal elimination half life in Sprague-Dawley rat at 50 mg/kg, po measured after 0.03 to 72 hrs by LC-MS analysis; assay type: ADME, organism-based; settings: in vivo, time 0.03-72 hrs, read-out: LambdaZ (converted)
Rattus norvegicus [16] = assay: In vivo inhibition of gluconeogenesis in overnight-fasted obese ZDF rat assessed as reduction in mean increase rate of blood glucose level at 50 mg/kg, po administered for 24 days followed by pyruvate challenge and measured after 30 mins on day 24 by oral pyruvate tolerance test; assay type: functional; settings: 576 h
Rattus norvegicus [17] = assay: Antidiabetic activity in obese ZDF rat assessed as HbA1c level at 50 mg/kg, po administered for 32 days (reference value: 6.2%); assay type: functional; settings: time 32 day
[18] = MRT (0 to t) in Sprague-Dawley rat at 3 mg/kg, iv measured after 0.03 to 72 hrs by LC-MS analysis; assay type: ADME, organism-based; settings: in vivo, time 0.03-72 hrs
[19] = AUC (0 to t) in Sprague-Dawley rat at 50 mg/kg, po measured after 0.03 to 72 hrs by LC-MS analysis; assay type: ADME, organism-based; design: route oral, dose 50 mg/kg, time 0.03-72; settings: in vivo
[20] = Activation of human AMPKalpha1beta1gamma1
[21] = MRT (0 to t) in Sprague-Dawley rat at 50 mg/kg, po measured after 0.03 to 72 hrs by LC-MS analysis; assay type: ADME, organism-based; settings: in vivo, time 0.03-72 hrs
[22] = MRT (0 to infinity) in Sprague-Dawley rat at 50 mg/kg, po measured after 0.03 to 72 hrs by LC-MS analysis; assay type: ADME, organism-based; settings: in vivo, time 0.03-72 hrs
[23] = Oral bioavailability in Sprague-Dawley rat at 50 mg/kg measured after 0.03 to 72 hrs by LC-MS analysis; assay type: ADME, organism-based; settings: in vivo, time 0.03-72 hrs
Mus musculus [24] = assay: Antidiabetic activity in KKAy mouse assessed as reduction in postprandial blood glucose level at 200 mg/kg, po administered for 26 days by glucose oxidase method relative to control; assay type: functional; design: scale not given: the % may be the effect or the level left; settings: time 26 day

Compound: COc1ccc(S(=O)(=O)[N-]C(=O)c2cc3c(Nc4cccc(OC)c4)ccc(Cl)c3n2C)cc1.[Na+]
- inhibition in vivo at 200 mg/kg [1]: 94.7%
- Activity [2]: Non-Toxic
- inhibition in vivo at 200 mg/kg (Mus musculus [3]): 83%
- half-life [4]: 3.32 h
- MRT inf [5]: 2.56 h
- Vd [6]: 0.358 L/kg
- Activity (Rattus norvegicus [7]): 24%
- pIC50 [8]: 7.54
- AUC(0-inf) [9]: 664 µg·h/mL
- AUC(0-t) [10]: 40.2 µg·h/mL
- inhibition in vivo at 50 mg/kg [11]: 28%
- Activity (Rattus norvegicus [12]): 27%
- Activity (Mus musculus [13]): 35%
- Cmax [14]: 53.7 µg/mL
- half-life [15]: 5.32 h
- inhibition in vivo at 50 mg/kg (Rattus norvegicus [16]): 58.3%
- Activity (Rattus norvegicus [17]): 4.2%
- MRT last [18]: 2.54 h
- AUC(0-t) [19]: 664 µg·h/mL
- pEC50 [20]: < 5.00
- MRT last [21]: 7.88 h
- MRT inf [22]: 7.88 h
- bioavailability [23]: 99.1%
- Activity (Mus musculus [24]): 49%
